Assay results from patent US20230150951A1, “2,5- OR 2,6-DISUBSTITUTED HYDROQUINONE DERIVATIVES WITH AT LEAST ONE CARBOXY, SULFO OR AMIDO GROUP USEFUL AS MEDICAMENTS” (OM PHARMA SA, priority 2020, published 2023).
Entries after “also recorded” stand apart in the source; their conditions may differ.

How the values were obtained:
[1] = test system: bleomycin induced pulmonary fibrosis; test: Bleomycin induced pulmonary fibrosis, 21 days; type: in vivo, mice; conditions: day 21; pirfenidone 100 mg/kg, IVc-059a 15 mg/kg
Method: A total of 40 male Balb/c mice aged 8-10 weeks were used for the study.
Mice were anesthetized using an IP injection of xylazine and ketamine. Once an appropriate plane of anaesthesia was achieved, animals had 1.0 U/kg bleomycin sulphate instilled via intratracheal route. The total volume of liquid was 50 μL.
Dosing of IV and positive control (pirfenidone) started 24 hours after bleomycin instillation.
Drug solution was formulated immediately prior to dosing. For a dose of 15 mg/kg (enough for 12, 30 g mice) 4.5 mg of compound was weighed out. 75 μl (5%) DMSO added and mixed until drug is in solution. 150 μl (10%) solutol added and vortexed gently, 150 μl (10%) PEG400 added and vortexed gently. 1000 μl PBS (pH7) was added and matrix was measured to ensure pH 7.0 was maintained. Remaining PBS (to a total of 1500 μl) was added. Compound remained in solution. […]
Ashcroft score: Lungs from each animal were FFPE, sectioned and stained with H&E according to an in-house protocol. […] Each lung was scored using the Ashcroft grading system to measure degree of inflammation/fibrosis as per Hubner et al., 2008. […]
An entire lung from each animal was formalin fixed and stored in 70% ethanol. […] Percent area covered by trichrome staining was quantified using Qupath and ImageJ software.

[2] = test system: acute pancreatitis murine model; test: Caerulein-induced acute pancreatitis murine model; type: in vivo, Balb/c mice; design: Serum IL33 level / Serum TGF-B level: unit not given here
Method: Therapeutic efficacy of the compounds according to the present invention was assessed on an acute pancreatitis murine model. Tissue samples were obtained to allow post in-life analysis of pancreatitis parameters. Plasma samples were also obtained to assess animal exposure levels after administration of the compounds.
Animals: A total of 70 female Balb/c mice aged 8-10 weeks weighing approximately 20-25 g were used for the study (Charles River). After 7 days acclimatization, they were allocated into the different groups. […] Cages, bedding, and water were sanitized before use. Animals were provided with Corn-o-cobs enrichment bedding to provide environment enrichment and nesting material. […] The animal holding room were maintained as follows—room temperature at 20-24° C., humidity at 30-70% and a 12 h light/dark cycle used. Although animals used in this study were immuno-competent, preparation of dosing solutions and dosing/weighing of animals were carried out in a sterile biosafety cabinet.
Final formulation was in 5% DMSO, 10% Solutol, 10% PEG400, 75% 0.9% Saline and pH adjusted to 7 with 0.5M NaOH solution.
Final formulation is in 5% DMSO, 10% Solutol, 10% PEG400, 75% 0.9% Saline and pH adjusted to 7 with 0.5M NaOH solution. For per os (PO) dosing IVc-059a is formulated in water. Drug solutions were formulated on the day of dosing.
The purposes of this study were to assess efficacy compounds in an acute pancreatitis model (14 days), generate tissue samples to allow post in-life analysis of pancreatitis parameters and generate four plasma samples to assess animal exposure levels after first and last injection obtained from blood samples taken 1 h and 24 h after first and last injection.
Study Design: On the first study day animals were randomly be assigned to treatment groups, ensuring an equal spread of bodyweight. Mice (except negative control group) were treated with test compounds were given 5 minutes prior to caerulein dosing, followed by injection with caerulein at […] via intraperitoneal route (IP) daily during the study.
Treatment of test compounds were given 5 minutes prior to caerulein dosing.
Sampling and post in-life analyses: at times indicated above a whole blood sample (60 μl) were taken from the lateral tail vein into tubes coated with K2-EDTA. Plasma samples were prepared and stored frozen at −20° C. Plasma samples were sent to client bioanalysis provider Eurofins (FR) for quantification of compound.
Terminal Sampling: Prior to termination animals were weighed. Terminal study animals were culled via CO2 inhalation. A terminal blood sample was taken via cardiac puncture and plasma prepared. Lipase and Amylase activities were measured via ELISA using commercially available ELISA kits. Remaining plasma was stored for future cytokine analyses. Pancreas tissue was resected and weighed, and a section ([…]) snap frozen and analysed for quantification of compound in pancreas sample. A section ([…]) was processed for measurement of MPO activity, IL-33 and TGF-B levels via ELISA. The remainder was fixed in formalin and embedded in paraffin wax. H&E staining was carried out and section assessed using Schmidts standard scoring system, examining: edema, inflammatory infiltration, parenchymal necrosis, haemorrhage. Massons' Trichrome staining was carried out and area covered by fibrotic tissue quantified digitally using QuPath software. Terminal serum samples was used to assess blood chemistry using an IdeXX CHEM15 and LYTE4 clip (4 animals per treatment group).
Histopathology assessment of pancreatic injury based on 4 criteria: Oedema, Inflammatory infiltration, Parenchymal necrosis, Haemorrhage and scored as described below.
Schmidt score is the evaluation of the efficacy of the compounds based on the four histopathology criteria as described in the table below.

Stability in DMSO = type: physicochemical
[3] = cited from earlier work
[4] = 1st experiment, caerulein induced, 15 mg/kg IV, Ib-010a and IVc-059a 150 mg/kg PO, Pirfenidone 40 mg/kg IV
[5] = 1st experiment, terminal pancreatic tissue, 15 mg/kg IV, Ib-010a and IVc-059a 150 mg/kg PO, Pirfenidone 40 mg/kg IV
[6] = 1st experiment, terminal serum, 15 mg/kg IV, Ib-010a and IVc-059a 150 mg/kg PO, Pirfenidone 40 mg/kg IV
[7] = second experiment, IV, 15 mg/kg, Pirfenidone 100 mg/kg

For `Cc1ccc(=O)n(-c2ccccc2)c1` [pirfenidone, reference compound], the “Onset of fibrosis in mouse lung (Ashcroft score)” value [1] was “reduced the onset of fibrosis in mouse lung”, the “Acinar cell necrosis (group mean score)” value [2, 4] was 0.8 and the “Haemorrhage (group mean score)” value [2, 4] was 0.4. The “Interstitial oedema (group mean score)” value [2, 4] was 1.0, the “Leukocyte infiltration (group mean score)” value [2, 4] was 2.0 and the “Mean terminal BW (% of initial)” value [2, 4] was 97.6 % of initial. The “Mean terminal pancreas weight” value [2, 4] was 0.136 g, the “Pancreas histopathology observations (H&E)” value [2, 4] was “Mild oedema observed; also recorded: Mild haemorrhage observed; also recorded: Mild acinar cell necrosis observed; also recorded: Leukocyte infiltration observed; also recorded: Normal islet morphology observed in areas” and the “Schmidt Score (H&E)” value ([2]; 1st experiment, caerulein induced, 15 mg/kg IV, Ib-010a and IVc-059a 150 mg/kg PO, Pirfenidone 40 mg/kg IV, induced + vehicle = 10, non-induced = 0) was 4.1. The “Pancreas IL33 level” value [2, 5] was 78 ± 23, the “Pancreas MPO activity” value [2, 5] was 1.26 and the “Pancreas TGF-B level” value [2, 5] was 289 ± 170. For the same molecule, the “Serum IL33 level” value [2, 6] was 39.16, the “Serum TGF-B level” value [2, 6] was 5.5 and the Serum amylase level [2, 6] was 37.71. For the same molecule, the Serum lipase level [2, 6] was 7.65, the Amylase [2, 7] was 45.171 mU/mL and the IL-33 [2, 7] was 226 ± 151 ng/mL. For the same molecule, the Lipase [2, 7] was 4.541 mU/mL, the MPO [2, 7] was 1.68 ± 0.44 U/mg and the “Schmidt Score” value [2, 7] was 8 ± 1. The TGF-B [2, 7] was 578 ± 230 ng/mL, the “Trichome staining (Fibrosis % area)” value [2, 7] was 1.277 ± 0.888 % area and the “Lipase activity in serum” value ([2]; second experiment, pirfenidone 100 mg/kg, compounds 15 mg/k, vs vehicle treated animals) was “significantly lower than that in vehicle treated animals”. For the same molecule, the “MPO activity in pancreatic tissue” value ([2]; second experiment, vs induced vehicle treated controls) was “significantly lower than induced vehicle treated controls”.

For `O=C(O)c1cc(O)c(-c2nc3cccc(C(=O)O)c3[nH]2)cc1O` [Id-030a, 2-(4-Carboxy-2,5-dihydroxyphenyl)-1H-benzo[d]imidazole-4-carboxylic acid], the “Stability in DMSO (in words)” value (Stability in DMSO) was “unstable in DMSO”.

In the case of `CNC(=O)c1cccc(C(=O)NC)c1O` [bis (N-methyl)amide of 2-hydroxyisophthalic acid], the pKa of phenol [3] is listed as 6.81.
